Experimental data published in patent US9981962B2, “Pyrazole derivatives as NIK inhibitors” (Janssen Pharmaceutica NV, priority 2014, dated 2018).

Legend:
L-363 cells = assay: Biological Assay C: antiproliferative activity on L-363 cells (CellTiter-Glo); type: cell-based, human; details: 72 hr treatment, averaged values
Method: (§1) Determination of Antiproliferative Activity on LP-1, L-363 and JJN-3 Cells
(§2) All compounds tested were dissolved in DMSO and further dilutions were made in culture medium. Final DMSO concentration was 0.3% (v/v) in cell proliferation assays. Viability was assessed using CellTiter-Glo cell viability assay kit (Promega). The human LP-1, L-363 and JJN-3 cells (DSMZ) were cultured in RPMI 1640 medium supplemented with 2 mM L-glutamine, and 10% fetal calf serum (PAA). Cells were routinely kept as suspension cells at 37° C. in a humidified 5% CO2 atmosphere. Cells were passaged at a seeding density of 0.2×10^6/ml twice a week. Cells were seeded in black tissue culture treated 96-well plates (Perkin Elmer). Densities used for plating ranged from 2,000 to 6,000 cells per well in a total volume of 75 μl medium. After twenty four hours, drugs and/or solvents were added (25 μl) to a final volume of 100 μl. Following 72 hr of treatment plates were removed from the incubator and allowed to equilibrate to room temperature for approx 10 min. 100 ut CellTiter-Glo reagent was added to each well that was then covered (Perkin Elmer Topseal) and shaken on plate shaker for 10 min. Luminescence was measured on a HTS Topcount (Perkin Elmer). Within an experiment, the results for each treatment were the mean of 2 replicate wells. For initial screening purposes, compounds were tested using a 9 point dilution curve (serial 1:3 dilutions). For each experiment, controls (containing no drug) and a blank incubation (containing cells read at the time of compound addition) were run in parallel. The blank value was subtracted from all control and sample values. For each sample, the mean value for cell growth (in relative light units) was expressed as a percentage of the mean value for cell growth of the control.

LP-1 cells = assay: Biological Assay C: antiproliferative activity on LP-1 cells (CellTiter-Glo); type: cell-based, human; details: 72 hr treatment, averaged values
Method: as §1, §2

JJN-3 cells = assay: Biological Assay C: antiproliferative activity on JJN-3 cells (CellTiter-Glo); type: cell-based, human; details: 72 hr treatment, averaged values
Method: as §1, §2

[1] = molecular target: Recombinant Human NF-kappaB-Inducing Kinase (NIK/MAP3K14) (Homo sapiens, UniProt Q99558); assay: Biological Assay A2: inhibition of auto-phosphorylation of recombinant human NIK/MAP3K14 (AlphaScreen); type: biochemical; details: 0.2 nM GST-tagged NIK, 25 microM ATP, 1 h at 25° C., averaged values
Chain of Recombinant Human NF-kappaB-Inducing Kinase (NIK/MAP3K14) (Q99558 whole entry): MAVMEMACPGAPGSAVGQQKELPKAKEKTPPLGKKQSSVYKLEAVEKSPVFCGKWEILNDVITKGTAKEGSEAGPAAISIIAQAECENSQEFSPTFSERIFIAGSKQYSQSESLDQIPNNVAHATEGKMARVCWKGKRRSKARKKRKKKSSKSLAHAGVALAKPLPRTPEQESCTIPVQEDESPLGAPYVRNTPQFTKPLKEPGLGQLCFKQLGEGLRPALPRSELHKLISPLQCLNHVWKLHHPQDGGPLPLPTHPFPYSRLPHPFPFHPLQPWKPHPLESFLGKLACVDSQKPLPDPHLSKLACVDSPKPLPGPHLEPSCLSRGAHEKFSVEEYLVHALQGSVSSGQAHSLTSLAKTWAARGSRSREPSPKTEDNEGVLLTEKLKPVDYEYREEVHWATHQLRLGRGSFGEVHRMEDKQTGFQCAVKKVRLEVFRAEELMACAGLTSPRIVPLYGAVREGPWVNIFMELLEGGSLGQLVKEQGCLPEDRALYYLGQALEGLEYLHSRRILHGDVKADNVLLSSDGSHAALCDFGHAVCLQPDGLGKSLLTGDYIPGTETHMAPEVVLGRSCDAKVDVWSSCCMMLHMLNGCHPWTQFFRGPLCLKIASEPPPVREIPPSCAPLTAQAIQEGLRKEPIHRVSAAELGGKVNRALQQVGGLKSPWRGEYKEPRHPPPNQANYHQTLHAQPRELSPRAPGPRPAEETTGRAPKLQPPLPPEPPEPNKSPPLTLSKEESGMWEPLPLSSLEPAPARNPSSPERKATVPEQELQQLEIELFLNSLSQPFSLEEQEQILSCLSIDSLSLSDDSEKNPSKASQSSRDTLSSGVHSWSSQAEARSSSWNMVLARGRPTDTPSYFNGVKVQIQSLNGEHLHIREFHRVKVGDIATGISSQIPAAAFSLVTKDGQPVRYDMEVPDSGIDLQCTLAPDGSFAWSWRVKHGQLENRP
Method: Inhibition of Auto-Phosphorylation of Recombinant Human NF-kappaB-Inducing Kinase (NIK/MAP3K14) Activity (AlphaScreen®)
NIK/MAP3K14 auto-phosphorylation activity was measured using the AlphaScreen® (αscreen) format (Perkin Elmer). All compounds tested were dissolved in dimethyl sulfoxide (DMSO) and further dilutions were made in assay buffer. Final DMSO concentration was 1% (v/v) in assays. Assay buffer was 50 mM Tris pH 7.5 containing 1 mM EGTA (ethylene glycol tetraacetic acid), 1 mM DTT (dithiothreitol), 0.1 mM Na3VO4, 5 mM MgCl2, 0.01% Tween® 20. Assays were carried out in 384 well Alphaplates (Perkin Elmer). Incubations consisted of compound, 25 microM Adenosine-5′-triphosphate (ATP), and 0.2 nM NIK/MAP3K14. Incubations were initiated by addition of GST-tagged NIK/MAP3K14 enzyme, carried out for 1 h at 25° C. and terminated by addition of stop buffer containing anti-phospho-IKK Ser176/180 antibody. Protein A Acceptor and Glutathione-Donor beads were added before reading using an EnVision® Multilabel Plate Reader (Perkin Elmer). Signal obtained in the wells containing blank samples was subtracted from all other wells and IC50's were determined by fitting a sigmoidal curve to % inhibition of control versus Log10 compound concentration.

[2] = system: P-IKKα levels in L363 cells; assay: Biological Assay B: effect of compounds on P-IKKα levels in L363 cells; type: cell-based; details: Homo sapiens, L-363, BAFF stimulated, 2 hr treatment, averaged values, read-out: IKKα Cellular IC50
Method: Effect of Compounds on P-IKKα Levels in L363 Cells
All compounds tested were dissolved in DMSO and further dilutions were made in culture medium. Final DMSO concentration was 1% (v/v) in cell assays. The human L363 cells (ATCC) were cultured in RPMI 1640 medium supplemented with GlutaMax and 10% fetal calf serum (PAA). Cells were routinely maintained at densities of 0.2×10^6 cells per ml—1×10^6 cells per ml at 37° C. in a humidified 5% CO2 atmosphere. Cells were passaged twice a week splitting back to obtain the low density. Cells were seeded in 96 well plates (Nunc 167008) at 2×10^6 per ml media in a volume of 75 μl per well plus 25 μl 1 μg/ml recombinant human B-cell activating factor (BAFF/BLyS/TNFSF13B). Seeded cells were incubated at 37° C. in a humidified 5% CO2 atmosphere for 24 hr. Drugs and/or solvents were added (20 μl) to a final volume of 120 μl. Following 2 hr treatment plates were removed from the incubator and cell lysis was achieved by the addition of 30 μl 5× lysis buffer followed by shaking on a plate shaker at 4° C. for 10 min. At the end of this incubation lysed cells were centrifuged at 800×g for 20 min at 4° C. and the lysate was assessed for P-IKKα levels by sandwich immuno-assay carried out in anti-rabbit antibody coated Mesoscale plates. Within an experiment, the results for each treatment were the mean of 2 replicate wells. For initial screening purposes, compounds were tested using an 8 point dilution curve (serial 1:3 dilutions). For each experiment, controls (containing MG132 and BAFF but no test drug) and a blank incubation (containing MG132 and BAFF and 10 μM ADS125117, a test concentration known to give full inhibition) were run in parallel. The blank incubation value was subtracted from all control and sample values. To determine the IC50 a sigmoidal curve was fitted to the plot of % inhibition of control P-IKKα levels versus Log10 compound concentration.

Structure (SMILES) | EC50 (L-363 cells) | EC50 (LP-1 cells) | EC50 (JJN-3 cells) | IC50 [1] | EC50 (L-363 cells; Homo sapiens, L-363, 72 h) | EC50 (LP-1 cells; Homo sapiens, LP-1, 72 h) | EC50 (JJN-3 cells; Homo sapiens, JJN-3, 72 h) | IC50 [2]
[2H]C([2H])([2H])C(O)(C#Cc1cc2c(-c3c[nH]nc3Cl)cn(C3CCCN(CC)C3)c2cc1F)C([2H])([2H])[2H] (single isomer, unassigned) [Compound 31] | 436 nM | 731 nM | 606 nM | 146 nM |  |  |  | 
[2H]C([2H])([2H])C(O)(C#Cc1cc2c(-c3c[nH]nc3Cl)cn(C3CCCN(CC)C3)c2cc1F)C([2H])([2H])[2H] (single isomer, unassigned) [Compound 32] | 310 nM | 407 nM | 437 nM | 76 nM |  |  |  | 
[2H]C([2H])([2H])C(O)(C#Cc1cc2c(-c3c[nH]nc3Cl)cn(C3CCN(C4CC4)CC3)c2cc1F)C([2H])([2H])[2H] [Compound 15] |  |  |  | 71 nM | 265 nM | 581 nM | 608 nM | 
[2H]c1n[nH]c([2H])c1-c1cn(CC)c2cc(F)c(C#CC(C)(C)O)cc12 [Compound 16] |  |  |  | 8510 nM |  | 14200 nM |  | 
COCCCn1cc(-c2c[nH]nc2Cl)c2cc(C#CC(C)(O)C3CC3)c(F)cc21 (stereo not shown) [Compound 17] |  |  |  | 183 nM | 3240 nM | 1400 nM | 1520 nM | 
COCCCn1cc(-c2c[nH]nc2Cl)c2cc(C#CC(C)(C)O)c(F)cc21 [Compound 18] |  |  |  | 33 nM | 1180 nM | 1510 nM | 706 nM | 
CN1CCC(n2cc(-c3c[nH]nc3Cl)c3cc(C#CC(C)(O)C4CC4)c(F)cc32)CC1 (stereo not shown) [Compound 19] |  |  |  | 190 nM | 632 nM | 749 nM | 811 nM | 
CN1CCC(n2cc(-c3c[nH]nc3Cl)c3cc(C#CC(C)(C)O)c(F)cc32)CC1 [Compound 20] |  |  |  | 21 nM | 43 nM | 111 nM | 61 nM | 
CC(O)(C#Cc1cc2c(-c3c[nH]nc3Cl)cn(CCCO)c2cc1F)C1CC1 (stereo not shown) [Compound 21] |  |  |  | 67 nM | 1930 nM | 3510 nM | 1090 nM | 
CC(C)(O)C#Cc1cc2c(-c3c[nH]nc3Cl)cn(CCCO)c2cc1F [Compound 22] |  |  |  | 11 nM | 430 nM | 1350 nM | 255 nM | 32 nM
CCn1cc(-c2c[nH]nc2Cl)c2cc(C#CC(C)(C)O)cc(Cl)c21 [Compound 23] |  |  |  | 204 nM | 5400 nM | 3610 nM | 2740 nM | 
CCn1cc(-c2c[nH]nc2Cl)c2cc(C#CC(C)(C)O)c(F)cc21 [Compound 24] |  |  |  | 11 nM | 683 nM | 1580 nM | 734 nM | 127 nM
CCn1cc(-c2c[nH]nc2Cl)c2cc(C#CC(C)(C)O)c(F)c(F)c21 [Compound 25] |  |  |  | 86 nM | 4350 nM | 3230 nM | 2230 nM | 
CCn1cc(-c2cn[nH]c2)c2cc(C#CC(C)(C)O)cc(F)c21 [Compound 26] |  |  |  | 51 nM | 1130 nM | 2210 nM | 1570 nM | 
CCn1cc(-c2cn[nH]c2)c2cc(C#CC(C)(C)O)cc(C(F)(F)F)c21 [Compound 27] |  |  |  | 552 nM |  |  |  | 
CCn1cc(-c2cn[nH]c2)c2cc(C#CC(C)(C)O)cc(C#N)c21 [Compound 28] |  |  |  | 554 nM |  |  |  | 
CN1CC(n2cc(-c3c[nH]nc3Cl)c3cc(C#CC(C)(C)O)c(F)cc32)C1 [Compound 29] |  |  |  | 50 nM | 176 nM | 758 nM | 375 nM | 
[2H]C([2H])([2H])C(O)(C#Cc1cc2c(-c3c[nH]nc3Cl)cn(C3CCCN(CC)C3)c2cc1F)C([2H])([2H])[2H] (stereo not shown) [Compound 30] | 201 nM |  |  | 126 nM |  | 397 nM | 379 nM | 
CN1CCC(n2cc(-c3c[nH]nc3Cl)c3cc(C#CC(C)(O)c4nccs4)c(F)cc32)CC1 (stereo not shown) [Compound 33] |  |  |  | 18 nM | 875 nM | 1610 nM | 624 nM | 
Cc1cc(C(C)(O)C#Cc2cc3c(-c4c[nH]nc4Cl)cn(C4CCN(C)CC4)c3cc2F)no1 (stereo not shown) [Compound 34] |  |  |  | 42 nM | 1220 nM | 2450 nM | 1380 nM | 
Cc1nc(C(C)(O)C#Cc2cc3c(-c4c[nH]nc4Cl)cn(C4CCN(C)CC4)c3cc2F)no1 (stereo not shown) [Compound 35] |  |  |  | 84 nM | 1090 nM | 4580 nM | 1360 nM | 
CN1CCC(n2cc(-c3c[nH]nc3Cl)c3cc(C#CC4(O)CCCC4)c(F)cc32)CC1 [Compound 36] |  |  |  |  | 845 nM | 1210 nM | 1220 nM | 
CN1CCC(n2cc(-c3c[nH]nc3Cl)c3cc(C#CC(C)(O)c4ncccn4)c(F)cc32)CC1 (stereo not shown) [Compound 37] |  |  |  | 162 nM | 2880 nM | 2510 nM | 4470 nM | 
